Tests used:
[1] = tested on: MT4; assay: Cytotoxic concentration required to reduce the viability of mock-infected MT-4 cells by 50%; format: functional; conditions: Homo sapiens
[2] = Effective concentration required to achieve 50% protection of MT-4 cells against the cytopathic effect of HIV-1 virus.; format: functional, cell-based; conditions: Human immunodeficiency virus 1, MT4
[3] = species: Mus musculus; assay: Reduced GM-CSF dependent colony formation in murine bone marrow progenitor cells at 5uM; format: functional
[4] = species: Homo sapiens; assay: The effective concentration required to achieve 50% protection of human peripheral blood lymphocytes against the cytopathic effect of HIV-1 virus HTLV-IIIB strain; format: functional, organism-based
[5] = species: Mus musculus; assay: Reduced IL-3 dependent colony formation in murine bone marrow progenitor cells at 50 uM; format: functional
[6] = species: Mus musculus; assay: Reduced IL-3 dependent colony formation in murine bone marrow progenitor cells at 0.5 uM; format: functional
[7] = tested on: MT4; assay: The effective concentration required to achieve 50% protection of MT-4 cells against the cytopathic effect of HIV-1 virus A012D strain; format: functional, cell-based; conditions: Homo sapiens
[8] = species: Mus musculus; assay: Reduced IL-3 dependent colony formation in murine bone marrow progenitor cells at 0.05 uM; format: functional
[9] = species: Mus musculus; assay: Reduced IL-3 dependent colony formation in murine bone marrow progenitor cells at 5uM; format: functional
[10] = species: Homo sapiens; assay: The cytotoxic concentration of compound required to reduce the viability of mock-infected PBL cells by 50% on HIV-1 virus HTLV-IIIB strain; format: functional
[11] = species: Mus musculus; assay: Reduced GM-CSF dependent colony formation in murine bone marrow progenitor cells at 0.5 uM; format: functional
[12] = species: Mus musculus; assay: Reduced GM-CSF dependent colony formation in murine bone marrow progenitor cells at 0.05 uM; format: functional
[13] = tested on: MT4; assay: The cytotoxic concentration of compound required to reduce the viability of mock-infected MT-4 cells by 50% on HIV-1 virus LAV-2ROD strain; format: functional; conditions: Homo sapiens
[14] = tested on: MT4; assay: The cytotoxic concentration of compound required to reduce the viability of mock-infected MT-4 cells by 50% on HIV-1 virus A012D strain; format: functional; conditions: Homo sapiens
[15] = species: Mus musculus; assay: Reduced GM-CSF dependent colony formation in murine bone marrow progenitor cells at 50 uM; format: functional
[16] = tested on: MT4; assay: The effective concentration required to achieve 50% protection of MT-4 cells against the cytopathic effect of HIV-2 virus LAV-2ROD; format: functional, cell-based; conditions: Homo sapiens
[17] = species: Mus musculus; assay: Reduced IL-3 dependent colony formation in murine bone marrow progenitor cells at 5 uM; format: functional
[18] = species: Mus musculus; assay: Reduced GM-CSF dependent colony formation in murine bone marrow progenitor cells at 5 uM; format: functional

Row | Structure (SMILES) | CC50 [1] | EC50 [2] | other results
1 | CCc1c(Cc2ccccc2)n(CCOC)c(=O)[nH]c1=O | 362 µM | 0.25 µM | 
2 | Cc1c(CCc2ccccc2)n(COCCO)c(=O)[nH]c1=O | 444 µM | > 444 µM | 
3 | CCc1c(Cc2cc(C)cc(C)c2)n(COCCO)c(=O)[nH]c1=O | 281 µM | 0.013 µM | 
4 | CCc1c(Cc2ccccc2)n(COCCO)c(=O)[nH]c1=O | 391 µM | 0.35 µM | 
5 | CCOCn1c(Cc2ccccc2)c(CC)c(=O)[nH]c1=O | 245 µM | 0.041 µM | 
6 | Cc1c(Sc2ccccc2)n(COCCO)c(=O)[nH]c1=O [HEPT] | 740 µM | 7 µM | 
7 | CCOCn1c(Cc2cc(C)cc(C)c2)c(C(C)C)c(=O)[nH]c1=O | 43 µM | 0.0006 µM | 
8 | CCOCn1c(Cc2cc(C)cc(C)c2)c(CC)c(=O)[nH]c1=O | 207 µM | 0.0016 µM | 
9 | Cc1c(Cc2ccccc2)n(COCCO)c(=O)[nH]c1=O |  | 23 µM | 
10 | CC(C)c1c(Cc2ccccc2)n(COCCO)c(=O)[nH]c1=O | 295 µM | 0.063 µM | 
11 | CCCCn1c(Cc2ccccc2)c(CC)c(=O)[nH]c1=O | > 500 µM | 0.21 µM | 
12 | Cc1cn([C@H]2C[C@H](N=[N+]=[N-])[C@@H](CO)O2)c(=O)[nH]c1=O [ZIDOVUDINE] | 7.8 µM | 0.003 µM | Colony_count [3]: 47; EC50 [4]: 0.002 µM; Colony_count [5]: 10; Colony_count [6]: 109; EC50 [7]: 0.3 µM; Colony_count [8]: 141; Colony_count [9]: 74; CC50 [10]: 12 µM; Colony_count [11]: 70; Colony_count [12]: 85; CC50 [13]: 7.8 µM; CC50 [14]: 7.8 µM; Colony_count [15]: 14
13 | CCCCn1c(Cc2ccccc2)c(C(C)C)c(=O)[nH]c1=O | 58 µM | 0.042 µM | 
14 | Cc1c(-c2ccccc2)n(COCCO)c(=O)[nH]c1=O | 166 µM | > 166 µM | 
15 | Cc1cc(C)cc(Cc2c(C(C)C)c(=O)[nH]c(=O)n2COCCO)c1 | 221 µM | 0.0027 µM | 
16 | COCCn1c(Cc2ccccc2)c(C(C)C)c(=O)[nH]c1=O | 195 µM | 0.052 µM | 
17 | CCOCn1c(Cc2ccccc2)c(C(C)C)c(=O)[nH]c1=O [EMIVIRINE] | 186 µM | 0.0042 µM | EC50 [4]: 0.004 µM; Colony_count [5]: 109; Colony_count [6]: 137; EC50 [16]: > 102 µM; EC50 [7]: 0.003 µM; Colony_count [8]: 136; Colony_count [17]: 137; Colony_count [18]: 77; CC50 [10]: 90 µM; Colony_count [11]: 75; Colony_count [12]: 89; CC50 [13]: 102 µM; CC50 [14]: 102 µM; Colony_count [15]: 57

— ChEMBL document CHEMBL1128585, “Synthesis and antiviral activity of 6-benzyl analogs of 1-[(2-hydroxyethoxy)methyl]-6-(phenylthio)thymine (HEPT) as potent and selective anti-HIV-1 agents” (J Med Chem, 1995)
